Like-named read-outs stand apart in the source and are kept apart here.
Legend:
SARS-CoV-2 3CL protease = SARS-CoV-2 3CL protease (Severe acute respiratory syndrome coronavirus 2, UniProt P0DTD1); assay: biochemical; conditions: 50% SARS-CoV-2 3CL protease inhibitory concentration, read-out: IC50
SARS-CoV-2 = assay: microbe, parasite or virus in culture; format: cell-based; conditions: Severe acute respiratory syndrome coronavirus 2, VeroE6/TMPRSS2, 72 h, 50% SARS-CoV-2 infected cell death inhibitory concentration, VeroE6/TMPRSS2 cells, 3 days culture

SMILES	IC50 (SARS-CoV-2 3CL protease; given as class symbols)	EC50 (SARS-CoV-2; class symbols)	IC50 (SARS-CoV-2 3CL protease; RapidFire MS)	EC50 (SARS-CoV-2; CellTiter-Glo 2.0)
Cn1cc2cc(Nc3nc(=O)n(Cc4nccc(N)n4)c(=O)n3Cc3cc(F)c(F)cc3F)c(Cl)cc2n1 [II-0246]	< 100 nM	1000 to 10000 nM	–	–
Cn1ccc(-c2ccnc(Cn3c(=O)nc(Nc4cc5cn(C)nc5cc4Cl)n(Cc4cc(F)c(F)cc4F)c3=O)c2)n1 [II-0247]	< 100 nM	< 1000 nM	–	–
O=c1nc(Nc2cc3cn(CCO)nc3cc2Cl)n(Cc2cc(F)c(F)cc2F)c(=O)n1Cc1ccccn1 [II-0249]	< 100 nM	1000 to 10000 nM	–	–
Cn1ccc(-c2ccnc(Cn3c(=O)nc(Nc4cc5cn(C)nc5cc4Cl)n(Cc4cc(F)c(F)cc4F)c3=O)n2)n1 [II-0250]	< 100 nM	1000 to 10000 nM	–	–
Cn1cc2cc(Nc3nc(=O)n(Cc4ccccn4)c(=O)n3Cc3cc(F)c(F)cc3F)c(Cl)cc2n1 [II-0251]	< 100 nM	< 1000 nM	–	–
COc1ccnc(Cn2c(=O)nc(Nc3cc4cn(C)nc4cc3Cl)n(Cc3cc(F)c(F)cc3F)c2=O)c1 [II-0252]	< 100 nM	1000 to 10000 nM	–	–
CNc1ccnc(Cn2c(=O)nc(Nc3cc4cn(C)nc4cc3Cl)n(Cc3cc(F)c(F)cc3F)c2=O)n1 [II-0253]	< 100 nM	1000 to 10000 nM	–	–
Cn1cc(-c2ccnc(Cn3c(=O)nc(Nc4cc5cn(C)nc5cc4Cl)n(Cc4cc(F)c(F)cc4F)c3=O)c2)cn1 [II-0254]	< 100 nM	1000 to 10000 nM	–	–
Cn1cc2cc(Nc3nc(=O)n(Cc4cc(Cl)ccn4)c(=O)n3Cc3cc(F)c(F)cc3F)c(Cl)cc2n1 [II-0255]	–	–	100 nM	1520 nM
COc1ccc(Nc2nc(=O)n(Cc3ncn(C(F)F)n3)c(=O)n2Cc2cc(F)c(F)c(F)c2)cc1 [II-0257]	–	–	970 nM	9140 nM
COc1ccc(Nc2nc(=O)n(Cc3cscn3)c(=O)n2Cc2cc(F)c(F)c(F)c2)cc1 [II-0258]	–	–	950 nM	7870 nM
COc1ccc(Nc2nc(=O)n(CC3CCN(C)C3)c(=O)n2Cc2cc(F)c(F)c(F)c2)cc1 (stereo not shown) [II-0259]	–	–	3400 nM	36300 nM
CCc1nc2cc(Cl)c(Nc3nc(=O)n(Cc4ncn(C)n4)c(=O)n3Cc3cc(Cl)c(F)cc3F)cc2s1 [II-0260]	< 100 nM	< 1000 nM	–	–
Cn1cc2cc(Nc3nc(=O)n(-c4cncc(C5CC5)c4)c(=O)n3Cc3ccc(F)c(C#N)c3)c(Cl)cc2n1 [II-0261]	< 100 nM	< 1000 nM	–	–
Cn1cnc(Cn2c(=O)nc(Nc3cc4sc(NCC(F)F)nc4cc3Cl)n(Cc3cc(Cl)c(F)cc3F)c2=O)n1 [II-0262]	< 100 nM	1000 to 10000 nM	–	–
CNc1nc2cc(F)c(Nc3nc(=O)n(-c4cncc(Cl)c4)c(=O)n3Cc3ccc(F)c(C#N)c3)cc2s1 [II-0263]	< 100 nM	1000 to 10000 nM	–	–
Cc1cncc(-n2c(=O)nc(Nc3ccc4nn(C)c(C)c4c3)n(Cc3ccc(F)c(C#N)c3)c2=O)c1 [II-0264]	< 100 nM	1000 to 10000 nM	–	–
Cc1cncc(-n2c(=O)nc(Nc3cc4cn(C)nc4cc3Cl)n(Cc3ccc(F)c(C#N)c3)c2=O)c1F [II-0265]	< 100 nM	< 1000 nM	–	–
Cc1c2cc(Nc3nc(=O)n(-c4cncc(Cl)c4)c(=O)n3Cc3ccc(F)c(C#N)c3)ccc2nn1C [II-0267]	< 100 nM	1000 to 10000 nM	–	–
Cn1cnc(Cn2c(=O)nc(Nc3cc4cn(CC5CC5)nc4cc3Cl)n(Cc3cc(Cl)c(F)cn3)c2=O)n1 [II-0269]	< 100 nM	1000 to 10000 nM	–	–
Cc1cncc(-n2c(=O)nc(Nc3cc4cn(C)nc4cc3Cl)n(Cc3cc(F)c(F)c(F)c3)c2=O)c1F [II-0270]	< 100 nM	1000 to 10000 nM	–	–
COCc1cncc(-n2c(=O)nc(Nc3ccc4c(c3)CCO4)n(Cc3ccc(F)c(C#N)c3)c2=O)c1 [II-0271]	< 100 nM	1000 to 10000 nM	–	–
COc1ccc(Nc2nc(=O)n(-c3cncc(C4CC4)c3)c(=O)n2Cc2cc(F)c(F)c(F)c2)cc1 [II-0272]	–	–	180 nM	1590 nM
Cn1cc2cc(Nc3nc(=O)n(-c4cncc(C(F)(F)F)c4)c(=O)n3Cc3cc(F)c(F)c(F)c3)c(Cl)cc2n1 [II-0273]	–	–	360 nM	6600 nM
COC(=O)c1cncc(-n2c(=O)nc(Nc3cc4cn(C)nc4cc3Cl)n(Cc3cc(F)c(F)c(F)c3)c2=O)c1 [II-0275]	–	–	360 nM	7280 nM

SMILES	IC50 (SARS-CoV-2 3CL protease; given as class symbols)	EC50 (SARS-CoV-2; class symbols)	IC50 (SARS-CoV-2 3CL protease; RapidFire MS)	EC50 (SARS-CoV-2; CellTiter-Glo 2.0)
Cc1cncc(-n2c(=O)nc(Nc3ccc4nn(CC(F)F)cc4c3)n(Cc3cc(C#N)c(F)cc3C)c2=O)c1 [II-0278]	–	–	3.1 nM	170 nM
Cc1cncc(-n2c(=O)nc(Nc3cc4c(cc3Cl)nc3n4CCN3)n(Cc3cc(Cl)c(F)cc3F)c2=O)c1 [II-0279]	< 100 nM	1000 to 10000 nM	–	–
Cc1cncc(-n2c(=O)nc(Nc3cc4cn(CC(=O)N(C)C)nc4cc3Cl)n(Cc3cc(F)c(F)c(F)c3)c2=O)c1 [II-0281]	< 100 nM	1000 to 10000 nM	–	–
Cn1cc2cc(Nc3nc(=O)n(-c4cncc(Cl)c4)c(=O)n3Cc3cc(C#N)c(F)cc3Cl)ccc2n1 [II-0282]	–	–	8.8 nM	260 nM
CNc1nc2cc(F)c(Nc3nc(=O)n(-c4cncc(C)c4)c(=O)n3Cc3ccc(F)c(C#N)c3)cc2s1 [II-0283]	< 100 nM	< 1000 nM	–	–
Cn1cc2cc(Nc3nc(=O)n(-c4cncc(Cl)c4)c(=O)n3Cc3cc(F)c(F)c(C#N)c3)ccc2n1 [II-0284]	–	–	9.2 nM	184 nM
CC(C)n1cc2cc(Nc3nc(=O)n(Cc4ncn(C)n4)c(=O)n3Cc3cc(F)c(F)cc3F)c(Cl)cc2n1 [II-0285]	< 100 nM	< 1000 nM	–	–
Cn1cnc(Cn2c(=O)nc(Nc3cc4cn(C)nc4cc3Cl)n(Cc3ccc(F)c(C#N)c3)c2=O)n1 [II-0286]	< 100 nM	1000 to 10000 nM	–	–
Cc1nc2cc(Cl)c(Nc3nc(=O)n(Cc4ncn(C)n4)c(=O)n3Cc3cc(F)c(F)cc3F)cc2s1 [II-0287]	< 100 nM	1000 to 10000 nM	–	–
Cn1cc2cc(Nc3nc(=O)n(-c4cncc(Cl)c4)c(=O)n3Cc3cc(F)c(F)cc3F)ccc2n1 [II-0288]	–	–	99 nM	2400 nM
Cc1cncc(-n2c(=O)nc(Nc3cc(-c4ccc[nH]c4=O)sc3C)n(Cc3cc(F)c(F)c(F)c3)c2=O)c1 [II-0289]	–	–	240 nM	16000 nM
Cc1cncc(-n2c(=O)nc(Nc3ccc4nn(C)cc4c3)n(Cc3cc(C#N)c(F)cc3C)c2=O)c1 [II-0290]	–	–	3.5 nM	210 nM
CNc1nc2cc(F)c(Nc3nc(=O)n(-c4cncc(C)c4)c(=O)n3Cc3cc(F)c(F)c(F)c3)cc2s1 [II-0291]	< 100 nM	1000 to 10000 nM	–	–
CNc1nc2cc(F)c(Nc3nc(=O)n(-c4cncc(C)c4)c(=O)n3Cc3cc(C#N)ccc3Cl)cc2s1 [II-0292]	–	–	3.9 nM	434 nM
O=c1nc(Nc2cc3cn(CCO)nc3cc2Cl)n(Cc2cc(F)c(F)c(Cl)c2)c(=O)n1Cc1ncccn1 [II-0294]	< 100 nM	1000 to 10000 nM	–	–
Cc1cncc(-n2c(=O)nc(Nc3ccc4nc(NCC(F)(F)F)sc4c3)n(Cc3cc(F)c(F)c(C#N)c3)c2=O)c1 [II-0295]	< 100 nM	1000 to 10000 nM	–	–
Cn1cc2cc(Nc3nc(=O)n(Cc4ncccn4)c(=O)n3Cc3cc(F)c(F)c(Cl)c3)c(Cl)cc2n1 [II-0296]	< 100 nM	< 1000 nM	–	–
CNc1nc2cc(Cl)c(Nc3nc(=O)n(Cc4ncccn4)c(=O)n3Cc3cc(F)c(F)c(Cl)c3)cc2s1 [II-0297]	< 100 nM	1000 to 10000 nM	–	–
Cc1cncc(-n2c(=O)nc(Nc3ccc4nc(NCC(F)(F)F)sc4c3)n(Cc3ccc(F)c(C#N)c3)c2=O)c1 [II-0298]	< 100 nM	1000 to 10000 nM	–	–
Cc1cncc(-n2c(=O)nc(Nc3ccc4nn(CC(F)(F)F)cc4c3)n(Cc3cc(C#N)ccc3C)c2=O)c1 [II-0299]	–	–	3.3 nM	202 nM
Cn1cnc(Cn2c(=O)nc(Nc3cc4cn(CCO)nc4cc3Cl)n(Cc3cc(Cl)c(F)cc3F)c2=O)n1 [II-0300]	< 100 nM	1000 to 10000 nM	–	–
Cc1cncc(-n2c(=O)nc(Nc3cc4cn(C)nc4cc3Cl)n(Cc3cc(C#N)ccc3F)c2=O)c1 [II-0301]	< 100 nM	< 1000 nM	–	–
Cn1cnc(Cn2c(=O)nc(Nc3cc4cn(CC(C)(C)O)nc4cc3Cl)n(Cc3cc(Cl)c(F)cc3F)c2=O)n1 [II-0302]	< 100 nM	1000 to 10000 nM	–	–
Cc1cncc(-n2c(=O)nc(Nc3cc4sc(NC5CC5)nc4cc3Cl)n(Cc3ccc(F)c(C#N)c3)c2=O)c1 [II-0303]	< 100 nM	< 1000 nM	–	–
Cc1ccc(C#N)cc1Cn1c(Nc2ccc3nn(CC(F)(F)F)cc3c2)nc(=O)n(-c2cncc(Cl)c2)c1=O [II-0304]	–	–	4.5 nM	213 nM

Source: US12559474B2, “Triazine derivatives having virus replication inhibitory activity and pharmaceutical composition comprising the same” (priority 2021, dated 2026)
